The test system of assay [1] is Stenotrophomonas maltophilia MDR 7785. Kind of assay: Rescue concentration, modified checkerboard MIC adjuvant assay. The format is cell-based. The note with it: S. maltophilia MDR 7785; for Rescue concentration, Cef (8): Cef at susceptible breakpoint 8 μg mL^−1; for Rescue concentration, Ceph (8): Ceph at susceptible breakpoint 8 μg mL^−1; for Rescue concentration, Chl (8): Chl at susceptible breakpoint 8 μg mL^−1; for Rescue concentration, Cip (2): Cip at susceptible breakpoint 2 μg mL^−1; for Rescue concentration, Gen (4): Gen at susceptible breakpoint 4 μg mL^−1; for Rescue concentration, Imi (2): Imi at susceptible breakpoint 2 μg mL^−1; for Rescue concentration, Mero (2): Mero at susceptible breakpoint 2 μg mL^−1; for Rescue concentration, Tri (2): Tri at susceptible breakpoint 2 μg mL^−1. The gist of the method: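 Visual growth read after 24 h at 35° C. under aerobic conditions defines rescue concentration as the lowest compound concentration restoring antibiotic susceptibility at breakpoint (99.99% growth reduction). Antibiotic held fixed at CLSI susceptible breakpoint; compound serially diluted twofold; ca-MHB, 10^6 CFU/ml.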

Assay [2] concerns Multidrug resistant Pseudomonas aeruginosa. Kind of assay: Broth microdilution minimum inhibitory concentration. The format is cell-based. The note with it: compound alone. The gist of the method: (§1)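 Broth microdilution followed CLSI M07-A10, using 11 two-fold dilutions (top 1028 μg/mL, 2% DMSO final) and an inoculum of 2×10^5 to 8×10^5 CFU/mL. Wells were scored visually. MIC is the lowest concentration with no growth, tested in duplicate.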
(Broth dilution looks for growth in wells or tubes with falling amounts of substance.)

For assay [3], the system named is Methicillin resistant Staphylococcus aureus. The description is as above. The format is cell-based. The note with it: compound alone. The method in brief:
as §1

For assay [4], the system named is Carbapenem resistant Klebsiella pneumoniae. The assay is described as above. The format is cell-based. The note with it: compound alone. The method in brief: as §1
Assay [5] has as its system Carbapenem resistant Acinetobacter baumannii. The assay is described as above. The format is cell-based. The note with it: compound alone. The gist of the method: as §1
For assay [6], the system named is Vancomycin resistant Enterococcus faecalis. The assay is described as above. The format is cell-based. The note with it: compound alone. The method in brief:
as §1

The subject of the next assay is K. pneumoniae. Description: Rescue concentration of substituted phenyl azaindole derivatives. The format is cell-based. The note with it: for Rescue concentration, K. pneumoniae Ciprofloxacin (1 μg/mL): Ciprofloxacin fixed at 1 μg/mL; for Rescue concentration, K. pneumoniae Imipenem (1 μg/mL): Imipenem fixed at 1 μg/mL. The method in brief: (§2)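 Modified checkerboard MIC: fixed CLSI susceptible-breakpoint antibiotic concentration plus twofold dilution series of SP-azaBIM, 10^6 CFU/ml in ca-MHB, 35° C, 24 h aerobic. Only antibiotics to which the strain was resistant were tested. Rescue concentration = lowest compound concentration giving 99.99% growth reduction (visual) at breakpoint.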

The next assay has as its system MRSA. The description is as above. The format is cell-based, Staphylococcus aureus. The note with it: Amoxicillin fixed at 2 μg/mL. The gist of the method:
as §2

For a further assay, the system named is P. aeruginosa. The assay is described as above. The format is cell-based. The note with it: Imipenem fixed at 1 μg/mL. The method in brief:
as §2

Regarding `Brc1ccc(C(c2c[nH]c3ncccc23)c2c[nH]c3ncccc23)cc1` [SP-7azaBIM 126, 3,3′-((4-bromophenyl)methylene)bis(1H-pyrrolo[2,3-b]pyridine)], in [1], the “Rescue concentration, Cef (8)” value was above 128 µg/mL; the “Rescue concentration, Ceph (8)” value is above 128 µg/mL; the “Rescue concentration, Chl (8)” value is above 128 µg/mL; the “Rescue concentration, Cip (2)” value is above 128 µg/mL. Further, in [1], the “Rescue concentration, Gen (4)” value is above 128 µg/mL; the “Rescue concentration, Imi (2)” value was determined as 16 µg/mL; the “Rescue concentration, Mero (2)” value came out at 32 µg/mL; the “Rescue concentration, Tri (2)” value is above 128 µg/mL.
What is called MIC is the lowest concentration found to suppress growth. Low values mean a more susceptible organism, high ones a less susceptible organism. In the case of `Brc1ccc(C(c2c[nH]c3cnccc23)c2c[nH]c3cnccc23)cc1` [SP-6azaBIM 125, 3,3′-((4-bromophenyl)methylene)bis(1H-pyrrolo[2,3-c]pyridine)], in assay [2], the MIC was below 1020 µg/mL. Besides, in assay [3], the MIC was below 1020 µg/mL. Besides, the MIC in assay [4] was below 1020 µg/mL. Further, the minimal inhibitory concentration (MIC) in [5] was below 1020 µg/mL. In assay [6], this compound returned an MIC below 1020 µg/mL. In addition, in the assay on K. pneumoniae, the “Rescue concentration, K. pneumoniae Ciprofloxacin (1 μg/mL)” value was 4 µg/mL and the “Rescue concentration, K. pneumoniae Imipenem (1 μg/mL)” value turned out to be 4 µg/mL. In assay [1], the “Rescue concentration, Cef (8)” value is 8 µg/mL; the “Rescue concentration, Ceph (8)” value stood at 8 µg/mL; the “Rescue concentration, Chl (8)” value stood at 4 µg/mL; the “Rescue concentration, Cip (2)” value was 2 µg/mL. Moreover, in assay [1], the “Rescue concentration, Gen (4)” value turned out to be 8 µg/mL; the “Rescue concentration, Imi (2)” value is 16 µg/mL; the “Rescue concentration, Mero (2)” value is 4 µg/mL; the “Rescue concentration, Tri (2)” value turned out to be 64 µg/mL. Moreover, the “Rescue concentration, MRSA Amoxicillin (2 μg/mL)” value in the assay with MRSA is 0.5 µg/mL. Besides, in the assay on P. aeruginosa, the “Rescue concentration, P. aeruginosa Imipenem (1 μg/mL)” value stood at 32 µg/mL.
As for `Oc1ccc(C(c2c[nH]c3ncccc23)c2c[nH]c3ncccc23)cc1` [SP-7azaBIM 135, 4-(bis(1H-pyrrolo[2,3-b]pyridin-3-yl)methyl)phenol], in [1], the “Rescue concentration, Cef (8)” value is above 128 µg/mL; the “Rescue concentration, Ceph (8)” value is above 128 µg/mL; the “Rescue concentration, Chl (8)” value is above 128 µg/mL; the “Rescue concentration, Cip (2)” value was above 128 µg/mL. In [1], the “Rescue concentration, Gen (4)” value was above 128 µg/mL; the “Rescue concentration, Imi (2)” value was above 128 µg/mL; the “Rescue concentration, Mero (2)” value is above 128 µg/mL; the “Rescue concentration, Tri (2)” value was above 128 µg/mL.
The compound `Oc1ccc(C(c2c[nH]c3cnccc23)c2c[nH]c3cnccc23)cc1` [SP-6azaBIM 136, 4-(bis(1H-pyrrolo[2,3-c]pyridin-3-yl)methyl)phenol] registered a minimum inhibitory concentration (MIC) in assay [2] below 1020 µg/mL. Besides, the minimum inhibitory concentration (MIC) in assay [3] was below 1020 µg/mL. Further, the MIC in [4] is below 1020 µg/mL. The same compound yielded a minimal inhibitory concentration (MIC) in [5] below 1020 µg/mL. This compound also yielded an MIC in [6] below 1020 µg/mL. In addition, in the assay with K. pneumoniae, the “Rescue concentration, K. pneumoniae Ciprofloxacin (1 μg/mL)” value was below 256 µg/mL and the “Rescue concentration, K. pneumoniae Imipenem (1 μg/mL)” value was below 256 µg/mL. In [1], the “Rescue concentration, Cef (8)” value is 32 µg/mL; the “Rescue concentration, Ceph (8)” value amounted to 64 µg/mL; the “Rescue concentration, Chl (8)” value amounted to 16 µg/mL; the “Rescue concentration, Cip (2)” value was found to be 16 µg/mL. In assay [1], the “Rescue concentration, Gen (4)” value came to 64 µg/mL; the “Rescue concentration, Imi (2)” value is 32 µg/mL; the “Rescue concentration, Mero (2)” value came out at 32 µg/mL; the “Rescue concentration, Tri (2)” value is above 128 µg/mL. Further, the “Rescue concentration, MRSA Amoxicillin (2 μg/mL)” value in the assay with MRSA was determined as 8 µg/mL. Further, in the assay with P. aeruginosa, the “Rescue concentration, P. aeruginosa Imipenem (1 μg/mL)” value is 256 µg/mL.

Source of the values: patent US20230382926A1, “COMPOUNDS AND USES THEREOF” (The University of The West Indies, priority 2022, published 2023).
